Patent publication EP0356739B1, “Recombinant DNA, microorganism carrying said recombinant DNA, and process for producing L-amino acids by the use of said microorganism” (AJINOMOTO CO., INC., priority 1988, dated 1990)

Assays:
[1] = tested on: acetohydroxy acid synthase; experiment: Acetohydroxy acid synthase activity of crude enzyme solution from transformant AJ12403/pAJ220V3, with amino acid added (feedback inhibition); assay type: biochemical, Brevibacterium lactofermentum; conditions: Amino acid added (5mM); crude enzyme of strain AJ12403/pAJ220V3; 65mM phosphate buffer, 100mM sodium pyruvate
Text: (§1) In order to confirm that the DNA donor strain or transformant imparted with resistance to antagonist contains a mutant-type gene that codes for acetohydroxy acid synthase with reduced feedback inhibition by L-valine, L-leucine or L-isoleucine, it is necessary to prepare an enzyme solution from that antagonist-resistant strain or transformant, to allow this solution to act upon pyruvic acid ( as substrate ) in the presence of L-valine, L-leucine or L-isoleucine, and to measure the amount of 2-acetolactic acid formed.
(§2) A strain being tested was cultivated in production medium (A) for about 18 hours, the grown cells were ultrasonicated, and the resulting solution was centrifuged at 15,000 r.p.m. for 20 minutes.
(§3) The supernatant thus obtained was used as a crude enzyme solution, which was added to a solution containing 65mM phosphate buffer and 100mM sodium pyruvate to effect enzymic reaction. Acetolactic acid thus formed was converted to acetoin, and the color developed by addition of 2-naphthol was measured at 530 nm.

[2] = tested on: acetohydroxy acid synthase; experiment: Acetohydroxy acid synthase activity of crude enzyme solution from wild-type strain ATCC13869, with amino acid added (feedback inhibition); assay type: biochemical, Brevibacterium lactofermentum; conditions: Amino acid added (5mM), 65mM phosphate buffer, 100mM sodium pyruvate
Text: as §1, §2, §3

| SMILES | relative activity values (%) when the activity in the absence of amino acid is taken as 100 [1] [%] | relative activity values (%) when the activity in the absence of amino acid is taken as 100 [2] [%] |
| --- | --- | --- |
| CC(C)C[C@H](N)C(=O)O [L-Leu, L-leucine] | 119 | 67 |
| CC[C@H](C)[C@H](N)C(=O)O [L-Ile, L-isoleucine] | 101 | 60 |
| CC(C)[C@H](N)C(=O)O [L-Val, L-valine] | 108 | 60 |
